According to patent US10087215B2, “Stabilized SOS1 peptides” (DANA-FARBER CANCER INSTITUTE, INC., priority 2013, dated 2018):
Bridges are numbered along the chain shown (N, C = ends). Where no end group is shown, it is not given here. [ ]: non-standard residue; d: D form. The star is where a group is joined. guanine PNA monomer = guanine peptide-nucleic acid (PNA) monomer, attached to a lysine side chain, NCCN(CC(=O)*)C(=O)Cn1cnc2c(=O)[nH]c(N)nc21; G‑GMONO = glycine-G PNA monomer on lysine; S5 = C=CCCC[C@](C)(N)C(=O)O

Legend:
[1] = target: KRAS G12D (Homo sapiens, UniProt P01116, G12D); assay: mant-GTP loading of KRAS, G12D; assay type: biochemical; details: for inhibition of mant-GTP loading: KRAS G12D oncogenic variant; for inhibition of nucleotide (mant-GTP) loading of KRAS: KRAS G12D per FIG. 20 legend
Excerpt: (§1) The negative control SAH-SOS B2 peptide had no effect (FIG. 11A-D).
Fluorescent GTP analog, mant-GTP, was used to assess the GTP loading propensity of KRAS protein.

[2] = target: KRAS and SOS1 protein (Homo sapiens, UniProt P01116); assay: Disruption of the association between KRAS and SOS1 protein in vitro; assay type: biochemical
[3] = system: Panc 10.05 cells; details: confocal microscopy and lysate fluorescence scan
[4] = target: T1, KRAS wild type (Homo sapiens, UniProt P01116); assay: mant-GTP loading of KRAS, wild type; assay type: biochemical
Excerpt: as §1

[5] = target: T1, KRAS wild type; assay: Fluorescence polarization binding assay, wild-type KRAS
Description: The affinity of the various peptides is detailed in FIG. 5.
Expression was induced by 1 mM IPTG for 4 hours at 30° C. Collected bacterial pellets were resuspended in lysis buffer (20 mM Tris, 250 mM NaCl, pH 7.6), lysed by microfluidization (Microfluidics M-110L), and centrifuged at 45,000 rpm for 1 h at 4° C. (Beckman L-90K). […] Concentrated eluates were subjected to size exclusion chromatography and the corresponding monomeric peaks were collected. Protein concentration was determined by Bradford assay (BioRad) and UV absorbance measurements.
FP assays were performed as previously described. Briefly, FITC-SAH-SOS peptides (e.g. 15 nM) were incubated with the indicated serial dilution of KRAS wild-type or mutant protein in binding buffer (50 mM Tris, 100 mM NaCl, pH 8.0) until equilibrium was reached. FP was measured using a SpectraMax M5 microplate reader (Molecular Devices). Dissociation constants (KD) were calculated by nonlinear regression analysis of dose-response curves using Prism software (GraphPad). Competition FP assays were performed by using K-RAS proteins (e.g. 250 nM), FITC-SAH-SOS peptides (e.g. 15 nM), and for competition assays, a serial dilution of N-terminal acetylated SAH-SOS peptides.

[6] = system: HeLa (cervical cancer, WT KRAS); assay: Cell viability, CellTiter-Glo, HeLa; assay type: cell-based; details: 24 hours
Description: (§2) The indicated cell lines (10^4/well) were plated overnight (96-well format) in high-glucose DMEM media supplemented with 10% FBS, antibiotics and L-Glutamine. Media was aspirated, and SAH-SOS peptides added at the indicated concentrations in serum-free DMEM. Cell viability was measured at 24 hours using the CellTiter-Glo assay (Invitrogen). The plotted data represent percent viability as normalized to untreated controls.

[7] = system: mouse embryonic fibroblasts; details: 0.5 μM FITC-conjugated peptide, 4 hours
[8] = system: HCT116 (colorectal cancer, KRAS G13D); assay: Cell viability, CellTiter-Glo, HCT116; assay type: cell-based; details: HCT116, 24 hours
Description: SAH-SOSB2, which contains a staple position that interferes with the KRAS binding interface, served as a negative control for this experiment. Dose-dependent cytotoxic activity of guanine peptide-nucleic acid derivatives of SAH-SOSC2 was also observed in a series of pancreatic and lung cancer subtypes (FIG. 22).
as §2

[9] = system: A549 (lung adenocarcinoma, KRAS G12S); assay: Cell viability, CellTiter-Glo, A549; assay type: cell-based; details: A549, 24 hours
Description: as §2

[10] = system: phospho-MEK1/2, phospho-ERK1/2, phospho-Akt, phospho-S6K, and phospho-myc in HeLa or Panc 10.05 cells; assay: Phospho-western blotting of downstream KRAS targets after EGF; assay type: cell-based; details: 4 h peptide incubation, then Epidermal Growth Factor (EGF)
Description: (§3) We tested a diversity of cancer cells lines to evaluate their susceptibility to SAH-SOS peptide treatments. […] After 4 h incubation with the indicated peptides, HeLa (FIG. 15A) or Panc 10.05 (FIG. 15B) cells were treated with […] (EGF), an upstream KRAS activator, and, lysates were prepared, subjected to electrophoresis, and western blotted with the indicated phospho-specific antibodies. Cells treated with or without EGF, in the absence of added peptide, served as positive and negative controls, respectively.
HeLa cells (10^5/well) were plated overnight (12-well format) in high-glucose DMEM media supplemented with 10% FBS, antibiotics and L-Glutamine. After 24 hours, cells were treated with the indicated amounts of SAH-SOS peptides for 4 hours in serum-free DMEM, followed by the addition of EGF (50 ng/ml) ([…], Cell Signaling) for an additional 15 minute incubation. The cells were then lysed in buffer containing 0.5% NP-40, 50 mM Tris (pH 7.4), 150 mM NaCl, complete protease inhibitors and PhosphoOne phosphatase inhibitors (Roche), and collected lysates subjected to SDS-PAGE following by western blotting with anti-phospho-Erk1/2, phospho-S6K, phospho-myc (Cell Signaling), and actin (Sigma) antibodies.

[11] = system: lung, pancreatic, colon, and cervical cancer cell lines; assay: Susceptibility of a diversity of cancer cell lines; assay type: cell-based
Description: as §3, §2

[12] = system: Myc promoter luciferase reporter in HeLa cells; assay: Myc promoter luciferase reporter assay; assay type: cell-based; details: EGF stimulation, normalized to cell viability
Description: HeLa cells transfected with a reporter construct containing luciferase under the control of the Myc promoter was treated with EGF and the indicated concentrations of SAH-SOS peptides (FIG. 16). The luciferase readout was normalized to cell viability and plotted as percent luciferase expression compared to baseline. […] No EGF treatment served as a negative control for the experiment.
HeLa cells (10^4/well) were plated overnight (96-well format) in high-glucose DMEM media supplemented with 10% FBS, antibiotics and L-Glutamine. After 24 hour incubation, cells were transfected with pBV-Luc/Del-6 plasmid that includes a luciferase reporter under c-myc promoter, using Lipofectamine 2000 (Invitrogen) according to the manufacturer's protocol. Twenty-four hours after transfection, the cells were treated with the indicated amounts of SAH-SOS peptides for 4 hours in serum-free media, and then. EGF (50 ng/ml) was added for an additional 4 hour incubation. CellTiter-Glo and luciferase (Invitrogen) kits were used to quantify cell viability and luciferase expression, respectively. Viability data was used to normalize luciferase expression.

[13] = target: wildtype KRAS (Homo sapiens, UniProt P01116); assay: Nucleotide (GTP) exchange assay with mant-GTP; assay type: biochemical; details: mant-GTP loaded KRAS, excess unlabeled GTP (10x)
Description: KRAS was loaded with equimolar mant-GTP (a fluorescent GTP analog), and excess unlabeled GTP (10×) is then added to the reaction mixture. The observed decrease in fluorescence reflects the GTP turnover activity at the KRAS active site. SAH-SOS peptides reduce the GTP turnover activity, as reflected by a shift of the curves from the no peptide negative control toward the inhibited exchange (2 mM MgCl2) positive control (FIG. 10).
Nucleotide exchange assays were performed as an association-dissociation experiment in which mant-GTP first associates with K-Ras followed by a dissociation step in which excess unlabeled GTP outcompetes mant-GTP, thus decreasing the fluorescence, as previously described^5. A kinetic readout of fluorescence, corresponding to the dissociation step, was recorded on a Tecan X1000 fluorescence spectrometer (excitation 360 nm, emission 440 nm). The rate of nucleotide exchange was determined by fitting a single exponential function to the dissociation phase readout from the experiment (Prism software, GraphPad). Reactions were performed with the indicated amounts of SAH-SOS peptides in buffer containing 25 mM Tris (pH 7.5), 50 mM NaCl, 1 mM DTT with 2 μM wildtype KRAS, 2 μM mantGTP and 200 μM unlabeled GTP. 2 mM MgCl2 was added as a […] to inhibit mantGTP release.

Row | inhibition of nucleotide (mant-GTP) loading of KRAS [1] | Compound | inhibition of mant-GTP loading [1] | disruption of KRAS-SOS1 association [2] | cellular uptake [3] | inhibition of mant-GTP loading [4] | binding to KRAS, in words [5] | cell viability [6] | cellular uptake [7] | cell viability [8] | cell viability [9] | phosphorylation of downstream KRAS targets [10] | anti-tumor activity in cancer cell lines [11] | myc-driven luciferase expression [12] | GTP exchange activity of KRAS [13]
1 | – | CC[C@H](C)[C@H](NC(=O)[C@]1(C)CCCC=CCCC[C@](C)(NC(=O)CNC(=O)[C@H](Cc2ccccc2)NC(=O)[C@H](Cc2ccccc2)NC(=O)[C@H](CCCNC(=N)N)NC(=O)[C@H](CCCNC(=N)N)NC(=O)CCNC(=S)Nc2ccc3c(c2)C(=O)OC32c3ccc(O)cc3Oc3cc(O)ccc32)C(=O)N[C@@H](Cc2ccc(O)cc2)C(=O)N[C@@H](CC(C)C)C(=O)N[C@@H]([C@@H](C)O)C(=O)N1)C(=O)N[C@@H](CC(C)C)C(=O)N[C@@H](CCCCN)C(=O)N[C@H](C(=O)N[C@@H](CCC(=O)O)C(=O)N[C@@H](CCC(=O)O)C(=O)NCC(=O)N[C@@H](CC(N)=O)C(N)=O)[C@@H](C)O [SAH-SOSB2, RRFFGXYLTXILKTEEGN] | had no effect | displayed no such activity | dose-dependent cellular uptake was observed | had no effect | does not bind KRAS | – | – | – | – | – | – | – | –
2 | – | CC[C@H](C)[C@H](NC(=O)CNC(=O)[C@H](Cc1ccccc1)NC(=O)[C@H](Cc1ccccc1)NC(=O)[C@H](CCCNC(=N)N)NC(=O)[C@H](CCCNC(=N)N)NC(=O)CCNC(=S)Nc1ccc2c(c1)C(=O)OC21c2ccc(O)cc2Oc2cc(O)ccc21)C(=O)N[C@@]1(C)CCCC=CCCC[C@@](C)(C(=O)N[C@@H](CC(C)C)C(=O)N[C@@H](CCCCN)C(=O)N[C@H](C(=O)N[C@@H](CCC(=O)O)C(=O)N[C@@H](CCC(=O)O)C(=O)NCC(=O)N[C@@H](CC(N)=O)C(N)=O)[C@@H](C)O)NC(=O)[C@H](CC(N)=O)NC(=O)[C@H]([C@@H](C)O)NC(=O)[C@H](CC(C)C)NC1=O [SAH-SOSC2, RRFFGIXLTNXLKTEEGN] | dose-responsively inhibited mant-GTP loading | disrupted the association between KRAS and SOS1 protein | dose-dependent cellular uptake was observed | dose-responsively inhibited mant-GTP loading | among the highest affinity | impairs the viability | cellular uptake | impairs the viability | impairs the viability | dose-responsively inhibited phosphorylation | demonstrated anti-tumor activity | specifically inhibited myc-driven luciferase expression | reduce the GTP exchange activity of KRAS in vitro in a dose-responsive manner
3 | effectively inhibited nucleotide loading | RRFFGIXLTNXLRTEK(G-GMONO)GN (RRFFGI[S5]LTN[S5]LRTEK(G‑GMONO)GN; staple 7-11) [SAH-SOS(G-Gmono), SAH-SOSC2 derivative with glycine-conjugated G-monomer on a lysine side chain] | – | – | – | – | – | – | – | – | – | – | – | – | –
4 | effectively inhibited nucleotide loading | RRFFGIXLTNXLRTEKGN (RRFFGI[S5]LTN[S5]LRTEK(guanine PNA monomer)GN; staple 7-11) [SAH-SOS(Gmono), SAH-SOSC2 derivative with guanine peptide-nucleic acid monomer (Gmono) on a lysine side chain] | – | – | – | – | – | – | – | – | – | – | – | – | –
